Experimental data reported in patent US8445510B2, “Fused bicyclic kinase inhibitors” (OSI Pharmaceuticals, LLC, priority 2011, dated 2013).

Columns and labels:
Aurora B = target: T1, Aurora B (Homo sapiens, UniProt Q96GD4); test: Aurora B cell mechanistic assay (HT-29), phospho-Histone H3 (Ser10) ELISA; assay type: cell-based; conditions: HT-29 cell line; inhibition of phospho-Histone H3 (Ser10); at least duplicate experiments (italicized if single experiment); read-out: Aurora B mech IC50
T1 construct: HT-29 cells grown in complete growth media
Procedure, shortened: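 HT-29 cells treated 1 h at 37 °C with serially diluted compound, then 100 nM Calyculin A added for 30 min. Lysates assayed by phospho-Histone H3 (Ser10) ELISA at 450 nm; normalized to DMSO (100%) and a reference Aurora B inhibitor (full inhibition); IC50 by four-parameter fit.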

MKN45 cells = test: MKN45 cell proliferation assay (CellTiter-Glo); assay type: cell-based; conditions: Homo sapiens, MKN-45, 72 h; MKN45 cell line; 3 days incubation; at least duplicate experiments; read-out: Prolif. IC50

T1 sequence (Q96GD4 whole entry): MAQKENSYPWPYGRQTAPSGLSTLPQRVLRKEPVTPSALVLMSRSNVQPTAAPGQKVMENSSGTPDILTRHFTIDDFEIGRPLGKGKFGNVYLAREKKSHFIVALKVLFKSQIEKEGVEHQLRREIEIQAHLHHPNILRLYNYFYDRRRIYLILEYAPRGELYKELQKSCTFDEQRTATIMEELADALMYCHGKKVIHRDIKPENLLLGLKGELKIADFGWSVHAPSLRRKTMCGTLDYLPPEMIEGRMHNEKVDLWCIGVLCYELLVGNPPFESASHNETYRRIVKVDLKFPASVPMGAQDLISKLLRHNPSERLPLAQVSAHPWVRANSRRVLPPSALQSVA

IC50 (Aurora B) [nM]	IC50 (MKN45 cells) [nM]	Structure (SMILES)
50 to 200	≤ 50	COc1ccc(F)c(Cl)c1[C@@H](C)c1c[nH]c2ncc(-c3cn([C@H]4CC[C@H](O)CC4)nc3C)cc12 [Example 28, trans-4-(4-{3-[(1S)-1-(2-Chloro-3-fluoro-6-methoxyphenyl)ethyl]-1H-pyrrolo[2,3-b]pyridin-5-yl}-3-methyl-1H-pyrazol-1-yl)cyclohexanol]
50 to 200	≤ 50	COc1ccc(F)c(Cl)c1[C@@H](C)c1c[nH]c2ncc(-c3cn([C@H]4CC[C@H](C(=O)N(C)C)CC4)nc3C)cc12 [Example 23, trans-4-(4-{3-[(1S)-1-(2-chloro-3-fluoro-6-methoxyphenyl)ethyl]-1H-pyrrolo[2,3-b]pyridin-5-yl}-3-methyl-1H-pyrazol-1-yl)-N,N-dimethylcyclohexanecarboxamide]
> 1000	≤ 50	CNC(=O)[C@H]1CC[C@H](n2nc(C)c(-c3cnc4[nH]cc([C@H](C)c5c(OC)ccc(F)c5Cl)c4c3)c2C)CC1 [Example 24, trans-4-(4-{3-[(1S)-1-(2-Chloro-3-fluoro-6-methoxyphenyl)ethyl]-1H-pyrrolo[2,3-b]pyridin-5-yl}-3,5-dimethyl-1H-pyrazol-1-yl)-N-methylcyclohexanecarboxamide]
